Experimental findings from patent US20230303497A1, “BENZYLAMINE OR BENZYL ALCOHOL DERIVATIVE AND USES THEREOF” (CHENGDU HYPERWAY PHARMACEUTICALS CO., LTD, priority 2020, published 2023) are described below.

The structures appear in SMILES notation.

Chain of human NaV1.8 ion channel (Q9Y5Y9 whole entry): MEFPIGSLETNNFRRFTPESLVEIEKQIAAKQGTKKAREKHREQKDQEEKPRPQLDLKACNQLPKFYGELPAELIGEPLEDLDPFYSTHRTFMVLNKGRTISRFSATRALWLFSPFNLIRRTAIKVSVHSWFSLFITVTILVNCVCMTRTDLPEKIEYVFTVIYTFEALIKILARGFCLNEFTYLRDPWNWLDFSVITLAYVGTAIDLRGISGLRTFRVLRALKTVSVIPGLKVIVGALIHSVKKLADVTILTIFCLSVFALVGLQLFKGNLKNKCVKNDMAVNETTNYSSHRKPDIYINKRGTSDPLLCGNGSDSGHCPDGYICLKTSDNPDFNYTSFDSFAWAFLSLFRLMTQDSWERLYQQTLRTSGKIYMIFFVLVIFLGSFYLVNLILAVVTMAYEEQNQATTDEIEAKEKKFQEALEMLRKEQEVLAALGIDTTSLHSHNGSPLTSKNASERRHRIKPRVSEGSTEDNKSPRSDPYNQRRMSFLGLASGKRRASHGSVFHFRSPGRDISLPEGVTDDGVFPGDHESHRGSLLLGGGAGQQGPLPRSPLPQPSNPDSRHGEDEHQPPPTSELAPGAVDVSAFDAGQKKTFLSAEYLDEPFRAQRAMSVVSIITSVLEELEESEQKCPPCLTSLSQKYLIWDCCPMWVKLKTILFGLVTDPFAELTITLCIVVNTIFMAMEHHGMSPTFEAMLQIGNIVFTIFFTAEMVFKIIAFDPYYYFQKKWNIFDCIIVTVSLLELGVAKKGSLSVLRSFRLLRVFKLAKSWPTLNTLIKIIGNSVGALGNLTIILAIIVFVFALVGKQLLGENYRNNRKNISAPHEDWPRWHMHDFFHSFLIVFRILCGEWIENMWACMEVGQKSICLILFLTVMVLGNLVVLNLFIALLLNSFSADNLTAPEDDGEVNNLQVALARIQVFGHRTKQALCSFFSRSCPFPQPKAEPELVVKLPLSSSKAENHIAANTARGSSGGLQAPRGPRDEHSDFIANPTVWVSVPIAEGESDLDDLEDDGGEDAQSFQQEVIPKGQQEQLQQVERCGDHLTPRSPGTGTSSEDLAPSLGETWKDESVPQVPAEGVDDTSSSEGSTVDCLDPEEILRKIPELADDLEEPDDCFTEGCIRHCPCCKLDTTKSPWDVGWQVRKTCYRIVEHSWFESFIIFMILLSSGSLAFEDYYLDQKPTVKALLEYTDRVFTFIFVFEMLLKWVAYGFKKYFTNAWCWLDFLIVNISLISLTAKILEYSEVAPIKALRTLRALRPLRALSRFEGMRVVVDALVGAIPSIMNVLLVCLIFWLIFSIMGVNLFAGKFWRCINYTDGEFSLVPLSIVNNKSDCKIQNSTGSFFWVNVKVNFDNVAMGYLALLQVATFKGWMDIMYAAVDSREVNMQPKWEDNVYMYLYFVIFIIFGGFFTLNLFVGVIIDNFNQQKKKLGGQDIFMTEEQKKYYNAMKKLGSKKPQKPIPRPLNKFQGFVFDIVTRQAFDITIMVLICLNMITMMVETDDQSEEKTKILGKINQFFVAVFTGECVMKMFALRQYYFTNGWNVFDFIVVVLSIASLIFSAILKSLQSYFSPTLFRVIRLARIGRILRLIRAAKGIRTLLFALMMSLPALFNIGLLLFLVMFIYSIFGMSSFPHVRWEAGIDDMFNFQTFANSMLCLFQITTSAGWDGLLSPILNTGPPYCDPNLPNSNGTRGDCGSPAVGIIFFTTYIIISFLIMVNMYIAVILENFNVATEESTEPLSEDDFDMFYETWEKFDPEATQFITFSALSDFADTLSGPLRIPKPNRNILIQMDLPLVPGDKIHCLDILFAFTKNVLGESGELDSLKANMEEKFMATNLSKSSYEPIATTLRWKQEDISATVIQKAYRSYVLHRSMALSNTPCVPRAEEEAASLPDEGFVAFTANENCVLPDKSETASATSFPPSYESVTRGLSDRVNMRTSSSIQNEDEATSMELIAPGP

One assay concerns the target human NaV1.8 ion channel (Homo sapiens (Human), UniProt Q9Y5Y9). The assay is described as follows: Compound inhibition activity on human NaV1.8 ion channel in HEK293 cells (whole-cell patch clamp). The format is cell-based. The note with it: 100 nm concentration; HEK293 cells, resting protocol. The protocol:
Test Case 1: Compound Inhibition Activity on Human NaV1.8 Ion Channel in HEK293 Cells
The final concentrations of the test compounds are prepared on the same day and then dissolved in extracellular solution. […] The intracellular solution (mM) contains: Aspartic acid, 140; MgCl2, 2; EGTA 11; HEPES, 10; pH 7.2 (CsOH titration). All test solutions contain 1 μM TTX.
The test solution are stored at a concentration of 3 mM in dimethyl sulfoxide (DMSO). The solutions will be dissolved in extracellular solution on the day of testing and prepared to the required concentration.
All experiments were performed at room temperature. Each cell itself is taken as the corresponding control.
At least one cell is tested per concentration.
HEK293 cell steady expressing NaV1.8 ion channel.
The intracellular fluid (mM) contains: Aspartic acid, 140; MgCl2, 2; EGTA 11; HEPES, 10; pH 7.2 (CsOH titration). […] Electrodes are drawn with PC-10 (Narishige, Japan). Recording is performed with whole-cell diaphragm clamp.
The cells are clamped at −80 mV and then depolarized to 10 mV with a sustained 10 ms square wave to give a Nav1.8 current. This procedure is repeated every 5 seconds.
(The patch-clamp technique gives a direct electrical read-out from membranes.)
Regarding `Cc1cc(F)ccc1Oc1cc(C2CC2)c(C(F)(F)F)cc1C(=O)Nc1ccc(F)c(C(N)CCO)c1` (stereo not shown) [Example 3, N-(3-(1-Amino-3-hydroxypropyl)-4-fluorophenyl)-4-cyclopropyl-2-(4-fluoro-2-methylphenoxy)-5-(trifluoromethyl) benzamide], the “Inhibition ratio of Nav1.8 (Activity of inhibition)” value was “A (A >= 80)”.

Consider `Cc1cc(F)ccc1Oc1ccc(C(F)(F)F)cc1C(=O)Nc1ccc(F)c(CC(N)C(N)=O)c1` (stereo not shown) [Example 17, N-(3-(2,3-Diamino-3-oxopropyl)-4-fluorophenyl)-2-(4-fluoro-2-methylphenoxy)-5-(trifluoromethyl) benzamide], for which the “Inhibition ratio of Nav1.8 (Activity of inhibition)” value is listed as “D (D < 20)”.

As for `Cc1cc(F)ccc1Oc1cc(C2CC2)c(C(F)(F)F)cc1C(=O)Nc1ccnc(OCC(O)CO)c1` (stereo not shown) [Example 63, 4-Cyclopropyl-N-(2-(2,3-dihydroxypropoxy)pyridin-4-yl)-2-(4-fluoro-2-methylphenoxy)-5-(trifluoromethyl) benzamide], the “Inhibition ratio of compounds against Nav1.8 (Activity of inhibition)” value was “B (80 > B >= 50)”.

The assay is the same for the next values; noted with them: 100 nm concentration; HEK293 cells, resting protocol; read-out: Inhibition ratio of Nav1.8 (Activity of inhibition).
As to `Cc1cc(F)ccc1Oc1ccc(C(F)(F)F)cc1C(=O)Nc1ccc(F)c(C(C)C(N)=O)c1` (stereo not shown) [Example 27, N-(3-(1-Amino-1-oxopropan-2-yl)-4-fluorophenyl)-2-(4-fluoro-2-methylphenoxy)-5-(trifluoromethyl) benzamide], the inhibition at 0.1 µM is over 80%.

With `Cc1cc(F)ccc1Oc1cc(C2CC2)c(C(F)(F)F)cc1C(=O)Nc1ccc(F)c(C(CCO)N(C)C)c1` (stereo not shown) [Example 8, 4-Cyclopropyl-N-(3-(1-(dimethylamino)-3-hydroxypropyl)-4-fluorophenyl)-2-(4-fluoro-2-methylphenoxy)-5-(trifluoromethyl) benzamide], the inhibition at 0.1 µM is over 80%.

Consider `Cc1cc(F)ccc1Oc1ccc(C(F)(F)F)cc1C(=O)Nc1ccc(F)c(C(N)CC(=O)O)c1` (stereo not shown) [Example 2, 3-Amino-3-(2-fluoro-5-(2-(4-fluoro-2-methylphenoxy)-5-(trifluoromethyl)benzamido)phenyl) propanoic acid], for which the inhibition at 0.1 µM is under 20%.

Consider `Cc1cc(F)ccc1Oc1cc(C2CC2)c(C(F)(F)F)cc1C(=O)Nc1ccc(F)c(C(N)CC(C)O)c1` (stereo not shown) [Example 20, N-(3-(1-Amino-3-hydroxybutyl)-4-fluorophenyl)-4-cyclopropyl-2-(4-fluoro-2-methylphenoxy)-5-(trifluoromethyl) benzamide], for which the inhibition at 0.1 µM is 50 to 80%.

In the case of `Cc1cc(F)ccc1Oc1cc(C2CC2)c(C(F)(F)F)cc1C(=O)Nc1ccc(F)c(C(N)C(F)CO)c1` (stereo not shown) [Example 22, N-(3-(1-Amino-2-fluoro-3-hydroxypropyl)-4-fluorophenyl)-4-cyclopropyl-2-(4-fluoro-2-methylphenoxy)-5-(trifluoromethyl) benzamide], the inhibition at 0.1 µM was over 80%.

Regarding `Cc1cc(F)ccc1Oc1cc(C2CC2)c(C(F)(F)F)cc1C(=O)Nc1ccc(F)c(C(N)C(=O)NCCO)c1` (stereo not shown) [Example 43], the inhibition at 0.1 µM lay in the range of 50 to 80%.

For `Cc1cc(F)ccc1Oc1ccc(C(F)(F)F)cc1C(=O)Nc1ccc(F)c(C2NCCNC2=O)c1` (stereo not shown) [Example 18, 2-(4-Fluoro-2-methylphenoxy)-N-(4-fluoro-3-(3-oxopiperazin-2-yl)phenyl)-5-(trifluoromethyl) benzamide], the inhibition at 0.1 µM is under 20%.

Turning to `Cc1cc(F)ccc1Oc1cc(C2CC2)c(C(F)(F)F)cc1C(=O)Nc1ccc(F)c(OCCN)c1` [Example 34, N-(3-(2-aminoethoxy)-4-fluorophenyl)-4-cyclopropyl-2-(4-fluoro-2-methylphenoxy)-5-(trifluoromethyl) benzamide], the inhibition at 0.1 µM fell in the range of 50 to 80%.

Regarding `Cc1cc(F)ccc1Oc1cc(C2CC2)c(C(F)(F)F)cc1C(=O)Nc1ccc(F)c(C(C)CN)c1` (stereo not shown) [Example 30, N-(3-(1-aminopropyl-2-yl)-4-fluorophenyl)-4-cyclopropyl-2-(4-fluoro-2-methylphenoxy)-5-(trifluoromethyl) benzamide], the inhibition at 0.1 µM was 50 to 80%.

Regarding `Cc1cc(F)ccc1Oc1cc(C2CC2)c(C(F)(F)F)cc1C(=O)Nc1ccc(F)c(C(C)CCO)c1` (stereo not shown) [Example 28, 4-cyclopropyl-2-(4-fluoro-2-methylphenoxy)-N-(4-fluoro-3-(4-hydroxybutan-2-yl)phenyl)-5-(trifluoromethyl) benzamide], the inhibition at 0.1 µM fell in the range of 20 to 50%.

For the compound `Cc1cc(F)ccc1Oc1cc(C2CC2)c(C(F)(F)F)cc1C(=O)Nc1ccc(F)c(C(N)CCN)c1` (stereo not shown) [Example 24, 4-Cyclopropyl-N-(3-(1,3-diaminopropyl)-4-fluorophenyl)-2-(4-fluoro-2-methylphenoxy)-5-(trifluoromethyl) benzamide], the inhibition at 0.1 µM was over 80%.

Turning to `Cc1cc(F)ccc1Oc1ccc(C(F)(F)F)cc1C(=O)Nc1ccc(F)c(CNCC(N)=O)c1` [Example 13], the inhibition at 0.1 µM fell in the range of 20 to 50%.

For the compound `Cc1cc(F)ccc1Oc1cc(C2CC2)c(C(F)(F)F)cc1C(=O)Nc1ccc(F)c(C(N)CC(N)=O)c1` (stereo not shown) [Example 37], the inhibition at 0.1 µM was over 80%.

The assay is the same for the next values; noted with them: 100 nm concentration; HEK293 cells, resting protocol; read-out: Inhibition ratio of compounds against Nav1.8 (Activity of inhibition).
On to `Cc1cc(F)ccc1Oc1cc(C2CC2)c(C(F)(F)F)cc1C(=O)Nc1ccc(F)c(OCC(O)CNc2ncc[nH]2)c1` (stereo not shown) [Example 100], for which the inhibition at 0.1 µM fell in the range of 50 to 80%.

Regarding `Cc1cc(F)ccc1Oc1cc(C2CC2)c(C(F)(F)F)cc1C(=O)Nc1ccc(F)c(C2CCNC(=O)CN2)c1` (stereo not shown) [Example 50], the inhibition at 0.1 µM lay within 20 to 50%.

In the case of `Cc1cc(F)ccc1Oc1cc(C2CC2)c(C(F)(F)F)cc1C(=O)Nc1ccc(F)c(OCC(O)CN2CCCC2)c1` (stereo not shown) [Example 79], the inhibition at 0.1 µM was 20 to 50%.

For `Cc1cc(F)ccc1Oc1cc(C2CC2)c(C(F)(F)F)cc1C(=O)Nc1ccc(F)c(C(C)CC(N)C(F)(F)F)c1` (stereo not shown) [Example 53, N-(3-(4-Amino-5,5,5-trifluoropentan-2-yl)-4-fluorophenyl)-4-cyclopropyl-2-(4-fluoro-2-methylphenoxy)-5-(trifluoromethyl) benzamide], the inhibition at 0.1 µM was under 20%.

Regarding `Cc1cc(F)ccc1Oc1cc(C2CC2)c(C(F)(F)F)cc1C(=O)Nc1ccc(F)c(OCC(N)=O)c1` [Example 76], the inhibition at 0.1 µM is over 80%.

On to `Cc1cc(F)ccc1Oc1cc(C2CC2)c(C(F)(F)F)cc1C(=O)Nc1ccc(F)c(C(CCO)NS(C)(=O)=O)c1` (stereo not shown) [Example 73], for which the inhibition at 0.1 µM was in the range of 20 to 50%.

For `Cc1cc(F)ccc1Oc1cc(C2CC2)c(C(F)(F)F)cc1C(=O)Nc1ccc(F)c(OC2CC(O)C2)c1` (stereo not shown) [Example 71], the inhibition at 0.1 µM lay within 50 to 80%.

With `Cc1cc(F)ccc1Oc1cc(C2CC2)c(C(F)(F)F)cc1C(=O)Nc1ccc(F)c(OCC(O)CNC23CC(C2)C3)c1` (stereo not shown) [Example 93], the inhibition at 0.1 µM was in the range of 50 to 80%.

On to `Cc1cc(F)ccc1Oc1cc(C2CC2)c(C(F)(F)F)cc1C(=O)Nc1ccc(F)c(N)c1` [Example 52, N-(3-Amino-4-fluorophenyl)-4-cyclopropyl-2-(4-fluoro-2-methylphenoxy)-5-(trifluoromethyl) benzamide], for which the inhibition at 0.1 µM lay in the range of 50 to 80%.

In the case of `Cc1cc(F)ccc1Oc1cc(C2CC2)c(C(F)(F)F)cc1C(=O)Nc1ccc(F)c(OCC(O)C(F)(F)F)c1` (stereo not shown) [Example 60, 4-cyclopropyl-2-(4-fluoro-2-methylphenoxy)-N-(4-fluoro-3-(3,3,3-trifluoro-2-hydroxypropoxy)phenyl)-5-(trifluoromethyl) benzamide], the inhibition at 0.1 µM is under 20%.

Consider `Cc1cc(F)ccc1Oc1cc(C2CC2)c(C(F)(F)F)cc1C(=O)Nc1ccc(F)c(OCC(O)CNc2ccc(F)cc2)c1` (stereo not shown) [Example 96], for which the inhibition at 0.1 µM is 20 to 50%.

Consider `Cc1cc(F)ccc1Oc1cc(C2CC2)c(C(F)(F)F)cc1C(=O)Nc1ccc(F)c(OCC(O)CNc2ccn[nH]2)c1` (stereo not shown) [Example 99], for which the inhibition at 0.1 µM was 50 to 80%.

Take `Cc1cc(F)ccc1Oc1cc(C2CC2)c(C(F)(F)F)cc1C(=O)Nc1cccc(OCC(O)CNC(C)C)c1` (stereo not shown) [Example 82]: the inhibition at 0.1 µM was over 80%.

As to `Cc1cc(F)ccc1Oc1cc(C2CC2)c(C(F)(F)F)cc1C(=O)Nc1ccc(F)c(C(C)CC(O)CNC(C)(C)C)c1` (stereo not shown) [Example 54, N-(3-(5-(tert-butylamino)-4-hydroxypentan-2-yl)-4-fluorophenyl)-4-cyclopropyl-2-(4-fluoro-2-methylphenoxy)-5-(trifluoromethyl) benzamide], the inhibition at 0.1 µM fell in the range of 50 to 80%.

Regarding `Cc1cc(F)ccc1Oc1cc(C2CC2)c(C(F)(F)F)cc1C(=O)Nc1ccc(F)c(C(CCO)n2ccnc2)c1` (stereo not shown) [Example 49, 4-Cyclopropyl-2-(4-fluoro-2-methylphenoxy)-N-(4-fluoro-3-(3-hydroxy-1-(1H-imidazol-1-yl)propyl)phenyl)-5-(trifluoromethyl) benzamide], the inhibition at 0.1 µM lay within 50 to 80%.

Turning to `Cc1cc(F)ccc1Oc1cc(C2CC2)c(C(F)(F)F)cc1C(=O)Nc1ccc(F)c(C(N)CCNC(C)(C)C)c1` (stereo not shown) [Example 66], the inhibition at 0.1 µM is over 80%.

As for `CC(=O)NCC(O)COc1cc(NC(=O)c2cc(C(F)(F)F)c(C3CC3)cc2Oc2ccc(F)cc2C)ccc1F` (stereo not shown) [Example 81], the inhibition at 0.1 µM is 50 to 80%.

The same assay, now with this note: HEK293, read-out: Inhibition ratio of Nav1.8 (Activity of inhibition).
For the compound `Cc1cc(F)ccc1Oc1ccc(C(F)(F)F)cc1C(=O)Nc1ccc(F)c(C(N)C(C)C(N)=O)c1` (stereo not shown) [Example 4, N-(3-(1,3-Diamino-2-methyl-3-oxopropyl)-4-fluorophenyl)-2-(4-fluoro-2-methylphenoxy)-5-(trifluoromethyl) benzamide], the inhibition at 0.1 µM was in the range of 50 to 80%.
